Assays:
Assay in all cases: relative viability (nuclei count vs DMSO), 5 days (fraction); higher = more cells survive
[1] = compound: C1CNCCC1C2=CC(=NN2)C3=CC=NC=C3 + Cc1nc(Nc2ncc(C(=O)Nc3c(C)cccc3Cl)s2)cc(N2CCN(CCO)CC2)n1 [Dasatinib] (partner 0.075 µM)
Procedure, shortened: (§1)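 Cells from lung cancer lines were seeded into 1536-well plates and, one day later, dosed by pin tool. Treatments were either a single drug or a fixed dose of an anchor drug with five library-drug doses (not always all listed) in √10 steps. After 5 days, nuclei were stained in a one-step fixation (final 0.05% Triton X-100, 1% formaldehyde, 1 ug/ml Hoechst) and counted on 4× images, and relative viability is the treated-to-vehicle nuclei ratio, as the median of duplicate plates.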

[2] = compound: C[C@@H](N)c1ccc(C(=O)Nc2ccnc3[nH]ccc23)cc1 + CC(=O)c1c(C)c2cnc(Nc3ccc(N4CCNCC4)cn3)nc2n(C2CCCC2)c1=O [Palbociclib] (partner 0.5 µM)
Procedure, shortened: as §1

[3] = compound: C[C@@H](N)c1ccc(C(=O)Nc2ccnc3[nH]ccc23)cc1 + CC1(C)CCC(c2ccc(Cl)cc2)=C(CN2CCN(c3ccc(C(=O)NS(=O)(=O)c4ccc(N[C@H](CCN5CCOCC5)CSc5ccccc5)c(S(=O)(=O)C(F)(F)F)c4)cc3)CC2)C1 [Navitoclax] (partner 0.5 µM)
Procedure, shortened: as §1

Tanzisertib + AZD7762 = compound: O[C@H]1CC[C@H](Nc2ncc3nc(Nc4c(F)cc(F)cc4F)n([C@H]4CCOC4)c3n2)CC1 [Tanzisertib] + NC(=O)Nc1cc(-c2cccc(F)c2)sc1C(=O)N[C@H]1CCCNC1 [AZD7762] (partner 0.2 µM)
Procedure, shortened: as §1

NCI-H661
relative viability ([1]; first compound 0.08 µM): 0.896 | relative viability ([1]; first compound 0.8 µM): 0.839 | relative viability ([1]; first compound 2.53 µM): 1.05 | relative viability ([1]; first compound 8 µM): 0.817 | relative viability ([2]; first compound 0.04 µM): 0.388 | relative viability ([2]; first compound 0.1265 µM): 0.464 | relative viability ([2]; first compound 0.4 µM): 0.41 | relative viability ([2]; first compound 1.265 µM): 0.35 | relative viability ([2]; first compound 4 µM): 0.362

NCI-H1299
relative viability ([3]; first compound 0.04 µM): 1.06 | relative viability ([3]; first compound 0.1265 µM): 0.988 | relative viability ([3]; first compound 0.4 µM): 0.983 | relative viability ([3]; first compound 1.265 µM): 0.973 | relative viability ([3]; first compound 4 µM): 0.932

NCI-H1563
relative viability ([1]; first compound 0.08 µM): 0.451 | relative viability ([1]; first compound 0.8 µM): 0.465 | relative viability ([1]; first compound 2.53 µM): 0.486 | relative viability ([1]; first compound 8 µM): 0.485

NCI-H1623
relative viability ([1]; first compound 0.08 µM): 0.574 | relative viability ([1]; first compound 0.8 µM): 0.38 | relative viability ([1]; first compound 2.53 µM): 0.557 | relative viability ([1]; first compound 8 µM): 0.563

NCI-H1648
relative viability ([2]; first compound 0.04 µM): 0.267 | relative viability ([2]; first compound 0.1265 µM): 0.34 | relative viability ([2]; first compound 0.4 µM): 0.279 | relative viability ([2]; first compound 1.265 µM): 0.371 | relative viability ([2]; first compound 4 µM): 0.414 | relative viability (Tanzisertib + AZD7762; first compound 0.08 µM): 0.683 | relative viability (Tanzisertib + AZD7762; first compound 0.253 µM): 0.629 | relative viability (Tanzisertib + AZD7762; first compound 0.8 µM): 0.73 | relative viability (Tanzisertib + AZD7762; first compound 2.53 µM): 0.676 | relative viability (Tanzisertib + AZD7762; first compound 8 µM): 0.595

NCI-H1650
relative viability ([1]; first compound 0.08 µM): 0.262 | relative viability ([1]; first compound 0.8 µM): 0.257 | relative viability ([1]; first compound 2.53 µM): 0.356 | relative viability ([1]; first compound 8 µM): 0.35 | relative viability ([2]; first compound 0.04 µM): 0.384 | relative viability ([2]; first compound 0.1265 µM): 0.369 | relative viability ([2]; first compound 0.4 µM): 0.319 | relative viability ([2]; first compound 1.265 µM): 0.294 | relative viability ([2]; first compound 4 µM): 0.344 | relative viability ([3]; first compound 0.04 µM): 1.35 | relative viability ([3]; first compound 0.1265 µM): 1.3 | relative viability ([3]; first compound 0.4 µM): 1.4 | relative viability ([3]; first compound 1.265 µM): 1.45 | relative viability ([3]; first compound 4 µM): 0.863

NCI-H1703
relative viability ([3]; first compound 0.04 µM): 1.28 | relative viability ([3]; first compound 0.1265 µM): 1.11 | relative viability ([3]; first compound 0.4 µM): 1.06 | relative viability ([3]; first compound 4 µM): 0.616 | relative viability (Tanzisertib + AZD7762; first compound 0.08 µM): 0.146 | relative viability (Tanzisertib + AZD7762; first compound 0.253 µM): 0.13 | relative viability (Tanzisertib + AZD7762; first compound 0.8 µM): 0.118 | relative viability (Tanzisertib + AZD7762; first compound 2.53 µM): 0.135 | relative viability (Tanzisertib + AZD7762; first compound 8 µM): 0.113

NCI-H2009
relative viability ([1]; first compound 0.08 µM): 0.323 | relative viability ([1]; first compound 0.8 µM): 0.265 | relative viability ([1]; first compound 2.53 µM): 0.318 | relative viability ([1]; first compound 8 µM): 0.31 | relative viability ([2]; first compound 0.04 µM): 0.194 | relative viability ([2]; first compound 0.1265 µM): 0.2 | relative viability ([2]; first compound 0.4 µM): 0.213 | relative viability ([2]; first compound 1.265 µM): 0.153 | relative viability ([2]; first compound 4 µM): 0.154 | relative viability ([3]; first compound 0.04 µM): 1.03 | relative viability ([3]; first compound 0.1265 µM): 1.13 | relative viability ([3]; first compound 0.4 µM): 1.05 | relative viability ([3]; first compound 1.265 µM): 1.01 | relative viability ([3]; first compound 4 µM): 0.801

NCI-H2023
relative viability ([1]; first compound 0.08 µM): 0.48 | relative viability ([1]; first compound 0.8 µM): 0.661 | relative viability ([1]; first compound 2.53 µM): 0.583 | relative viability ([1]; first compound 8 µM): 0.567 | relative viability ([2]; first compound 0.04 µM): 0.371 | relative viability ([2]; first compound 0.1265 µM): 0.409 | relative viability ([2]; first compound 0.4 µM): 0.424 | relative viability ([2]; first compound 4 µM): 0.35 | relative viability ([3]; first compound 0.04 µM): 1.09 | relative viability ([3]; first compound 0.1265 µM): 1.02 | relative viability ([3]; first compound 0.4 µM): 1.08 | relative viability ([3]; first compound 1.265 µM): 1.07 | relative viability ([3]; first compound 4 µM): 0.799

NCI-H2228
relative viability ([1]; first compound 0.08 µM): 0.594 | relative viability ([1]; first compound 0.8 µM): 0.572 | relative viability ([1]; first compound 2.53 µM): 0.531 | relative viability ([1]; first compound 8 µM): 0.484 | relative viability ([2]; first compound 0.04 µM): 0.808 | relative viability ([2]; first compound 0.1265 µM): 0.806 | relative viability ([2]; first compound 0.4 µM): 0.909 | relative viability ([2]; first compound 1.265 µM): 0.352 | relative viability ([2]; first compound 4 µM): 0.839 | relative viability ([3]; first compound 0.04 µM): 0.897 | relative viability ([3]; first compound 0.1265 µM): 1.08 | relative viability ([3]; first compound 0.4 µM): 1.03 | relative viability ([3]; first compound 1.265 µM): 0.985 | relative viability ([3]; first compound 4 µM): 0.963

NCI-H2342
relative viability ([1]; first compound 0.08 µM): 0.343 | relative viability ([1]; first compound 0.8 µM): 0.268 | relative viability ([1]; first compound 2.53 µM): 0.357 | relative viability ([1]; first compound 8 µM): 0.41 | relative viability ([2]; first compound 0.04 µM): 0.513 | relative viability ([2]; first compound 0.1265 µM): 0.53 | relative viability ([2]; first compound 0.4 µM): 0.596 | relative viability ([2]; first compound 1.265 µM): 0.498 | relative viability ([2]; first compound 4 µM): 0.532 | relative viability (Tanzisertib + AZD7762; first compound 0.08 µM): 0.416 | relative viability (Tanzisertib + AZD7762; first compound 0.253 µM): 0.633 | relative viability (Tanzisertib + AZD7762; first compound 0.8 µM): 0.515 | relative viability (Tanzisertib + AZD7762; first compound 2.53 µM): 0.477 | relative viability (Tanzisertib + AZD7762; first compound 8 µM): 0.41

SK-LU-1
relative viability ([1]; first compound 0.08 µM): 0.156 | relative viability ([1]; first compound 0.8 µM): 0.181 | relative viability ([1]; first compound 2.53 µM): 0.206 | relative viability ([1]; first compound 8 µM): 0.166 | relative viability ([2]; first compound 0.04 µM): 0.42 | relative viability ([2]; first compound 0.1265 µM): 0.44 | relative viability ([2]; first compound 0.4 µM): 0.465 | relative viability ([2]; first compound 1.265 µM): 0.273 | relative viability ([2]; first compound 4 µM): 0.338 | relative viability ([3]; first compound 0.04 µM): 0.922 | relative viability ([3]; first compound 0.1265 µM): 0.786 | relative viability ([3]; first compound 0.4 µM): 0.778 | relative viability ([3]; first compound 1.265 µM): 0.633 | relative viability ([3]; first compound 4 µM): 0.503

SK-MES-1
relative viability ([1]; first compound 0.08 µM): 0.424 | relative viability ([1]; first compound 0.8 µM): 0.221 | relative viability ([1]; first compound 2.53 µM): 0.465 | relative viability ([1]; first compound 8 µM): 0.368 | relative viability ([2]; first compound 0.04 µM): 0.312 | relative viability ([2]; first compound 0.1265 µM): 0.365 | relative viability ([2]; first compound 0.4 µM): 0.306 | relative viability ([2]; first compound 1.265 µM): 0.337 | relative viability ([2]; first compound 4 µM): 0.271 | relative viability ([3]; first compound 0.04 µM): 1.4 | relative viability ([3]; first compound 0.1265 µM): 1.39 | relative viability ([3]; first compound 0.4 µM): 1.34 | relative viability ([3]; first compound 1.265 µM): 1.33 | relative viability ([3]; first compound 4 µM): 1.14

SW 900
relative viability ([1]; first compound 0.08 µM): 0.568 | relative viability ([1]; first compound 0.8 µM): 0.445 | relative viability ([1]; first compound 2.53 µM): 0.519 | relative viability ([1]; first compound 8 µM): 0.452 | relative viability ([2]; first compound 0.04 µM): 0.564 | relative viability ([2]; first compound 0.1265 µM): 0.607 | relative viability ([2]; first compound 0.4 µM): 0.547 | relative viability ([2]; first compound 1.265 µM): 0.581 | relative viability ([2]; first compound 4 µM): 0.611 | relative viability (Tanzisertib + AZD7762; first compound 0.253 µM): 0.646 | relative viability (Tanzisertib + AZD7762; first compound 0.8 µM): 0.603 | relative viability (Tanzisertib + AZD7762; first compound 2.53 µM): 0.727 | relative viability (Tanzisertib + AZD7762; first compound 8 µM): 0.423

SW 1573
relative viability ([1]; first compound 0.8 µM): 0.647 | relative viability ([1]; first compound 2.53 µM): 0.658 | relative viability ([1]; first compound 8 µM): 0.486 | relative viability ([2]; first compound 0.04 µM): 0.491 | relative viability ([2]; first compound 0.1265 µM): 0.416 | relative viability ([2]; first compound 0.4 µM): 0.385 | relative viability ([2]; first compound 1.265 µM): 0.356 | relative viability ([2]; first compound 4 µM): 0.341 | relative viability ([3]; first compound 0.04 µM): 1.14 | relative viability ([3]; first compound 0.1265 µM): 0.927 | relative viability ([3]; first compound 0.4 µM): 1.12 | relative viability ([3]; first compound 1.265 µM): 0.774 | relative viability ([3]; first compound 4 µM): 0.426
